What follows are compounds tested against T1, rsE-selectin (Homo sapiens, UniProt P16581) (assay: Inhibition of adhesion of HL-60 cells to plate-coated rsE-selectin (Experiment 2)). Conditions: 50% inhibition concentration of adhesion of rsE-selectin to HL-60, from inhibition curves; medium-only well = 100%.
T1 sequence (P16581 22-556 limits assumed): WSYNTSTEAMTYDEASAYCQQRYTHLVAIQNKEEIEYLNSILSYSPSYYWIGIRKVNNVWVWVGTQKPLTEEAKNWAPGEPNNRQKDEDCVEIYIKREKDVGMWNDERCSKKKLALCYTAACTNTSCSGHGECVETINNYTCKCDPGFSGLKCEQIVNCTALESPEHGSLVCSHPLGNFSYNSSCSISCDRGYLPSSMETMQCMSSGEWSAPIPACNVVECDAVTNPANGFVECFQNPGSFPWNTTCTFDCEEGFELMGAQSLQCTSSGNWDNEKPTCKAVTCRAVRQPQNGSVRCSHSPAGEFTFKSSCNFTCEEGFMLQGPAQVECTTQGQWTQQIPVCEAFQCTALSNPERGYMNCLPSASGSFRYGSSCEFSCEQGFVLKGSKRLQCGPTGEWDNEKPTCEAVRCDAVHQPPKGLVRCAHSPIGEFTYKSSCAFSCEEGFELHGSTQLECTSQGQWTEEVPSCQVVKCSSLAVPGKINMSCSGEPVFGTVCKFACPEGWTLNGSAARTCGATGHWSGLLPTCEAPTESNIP
Format: cell-based
Experimental: The DPBS solution containing rsE-selectin (3 µg/ml) was added to a 96 well plate at 50 µl/well, while wells filled with DPBS without rsE-selectin (non-specific adhesion control) were prepared on the same plate, and the plate was kept at room temperature for 3 hours. Then wells were washed 3 times with a DPBS/BSA solution at 200 µl/well, and DPBS/BSA solution was added at 200 µl/well, and the plate was kept at room temperature for 1 hour. After removing DPBS/BSA solution, a medium containing NWB or NWB plus a compound of the invention was added at 40 µl/well.
Frozen HL-60 cells were thawed promptly at 37°C, and washed with NWB cooled to 4°C 3 times by centrifugation at 1500rpm × 5 min. The cells were adjusted with NWB to 1×10^7 cells/ml, added to the plate at 20 µl/well, and the plate was kept at room temperature for 15 min.
The plate was set on a plate washer to remove nonadhesive HL-60 cells. The plate washer was set at slow mode, cycle 3 (washing 3 times), soak 0 sec., 12 rows (along vertical direction), and volume of NWB for 1 washing 200 µl/well at room temperature.
A citrate solution containing 0.1% NP-40 at room temperature was added at 50 µl/well, and the plate was kept at room temperature for 5 minutes. The substrate solution (4 mg OPDA, 4µl 30% H2O2/4 ml citrate) was added at 50 µl/well, protected from light with aluminum foil, allowed to develop color for 5 to 20 minutes, and the reaction was terminated by adding 4N-H2SO4 at 50µl/well. The substrate solution was used within 30 minutes after preparation.
The OD490 of each well was determined, and the OD490 value of the well for nonspecific adhesion was subtracted from the value of each well. The value found in a well containing only the medium was used as a control (100%) and the amount of adhesion in wells containing Compounds (15), (31), (33)-(40) or (41) of the invention was calculated by percent in terms of the values of the control. By drawing inhibition curves, 50% inhibition concentration (IC50) was determined.
The materials for the experiment were obtained from the following sources. rsE-selectin: producible by the method described in J. C. Poulson, J. Am. Chem. Soc., 117: 66-79 (1995). The sample of rsE-selectin used in the experiments was kindly supplied by the author. HL-60 : ATCC Corp. DPBS (Dulbecco Phosphate Buffered Saline) : GIBCO Corp. BSA (Bovine Serum Albumin) : Sigma Corp. HBSS (Hanks Balanced Salt Solution) : GIBCO Corp. OPDA (Ortho-phenylenediamine) : Sigma Corp. RPMI 1640 medium : GIBCO Corp. Bovine Fetal Serum : GIBCO Corp. Plate : Immulon. 2. (flat bottomed) : Dynatech Laboratories. Plate washer; Microplate Washer : Molecular Devices Corp.
A compound of the present invention was adjusted to 100mM with DPBS, and pH was adjusted to 7.1-7.4.
HL-60 was cultured in RPMI 1640 medium supplemented with 10% Bovine Fetal Serum. Using a cell freezing solution consisting of 80% RPMI 1640 medium + 10% Bovine Fetal Serum + 10% DMSO, HL-60 was frozen at 1.5 × 10^7 cells per a tube according to a conventional method, and stocked at -80°C. This was used under sterile condition.
Composition of DPBS/BSA was DPBS + 1% BSA.
Composition of NWB was HBSS + 10mM-HEPES + 0.2%glucose + 1%BSA+ 1mM-CaCl2. These two solutions are prepared under sterile condition.
The citrate solution was prepared by dissolving 2.33 g of citric acid and 9.20 g of Na2HPO4·12H2O in 500 ml of desalted water.

| Compound | IC50 [µM] |
| --- | --- |
| CCCCCCCCCOc1c(OC)cc(CCCO[C@@H]2O[C@H](CO)[C@@H](O[C@@H]3O[C@H](CO)[C@H](O)[C@H](O[C@]4(C(=O)O)C[C@H](O)[C@@H](NC(C)=O)[C@H]([C@H](O)[C@H](O)CO)O4)[C@H]3O)[C@H](O[C@@H]3O[C@@H](C)[C@@H](O)[C@@H](O)[C@@H]3O)[C@H]2NC(=O)c2ccc3ccccc3c2)cc1OC [Compound 40, 3-(3,5-Dimethoxy-4-nonyloxyphenyl)propyl (5-acetamido-3,5-dideoxy-α-D-glycero-D-galacto-2-nonulopyra nosylonic acid)-(2→3)-O-(β-D-galactopyranosyl)-(1→4)-O-[α-L-fucopyranosyl-(1→3)-O]-(2-deoxy-2-naphthamido-β-D-glucopyranoside)] | 70 |
| COc1cc(CCCO[C@@H]2O[C@H](CO)[C@@H](O[C@@H]3O[C@H](CO)[C@H](O)[C@H](O[C@]4(C(=O)O)C[C@H](O)[C@@H](NC(C)=O)[C@H]([C@H](O)[C@H](O)CO)O4)[C@H]3O)[C@H](O[C@@H]3O[C@@H](C)[C@@H](O)[C@@H](O)[C@@H]3O)[C@H]2NC(=O)c2ccccc2)cc(OC)c1OC [Compound 41, 3-(3,4,5-Trimethoxyphenyl)propyl (5-acetamido-3,5-dideoxy-α-D-glycero-D-galacto-2-nonulopyranosylonic acid)-(2→3)-O-(β-D-galactopyranosyl)-(1→4)-O-[α-L-fucopyranosyl-(1→3)-O]-(2-deoxy-2-benzamido-β-D-glucopyranoside)] | 110 |
| CC(=O)N[C@H]1[C@H]([C@H](O)[C@H](O)CO)O[C@@](O[C@H]2[C@@H](O)[C@@H](CO)O[C@@H](O[C@H]3[C@H](O[C@@H]4O[C@@H](C)[C@@H](O)[C@@H](O)[C@@H]4O)[C@@H](NC(=O)c4ccc5ccccc5c4)[C@H](OCCCCCCCCCCCCO)O[C@@H]3CO)[C@@H]2O)(C(=O)O)C[C@@H]1O [Compound 37, 12-Hydroxydodecyl (5-acetamido-3,5-dideoxy-α-D-glycero-D-galacto-2-nonulopyranosylonic acid)-(2→3)-O-(β-D-galactopyranosyl)-(1→4)-O-[α-L-fucopyranosyl-(1→3)-O]-(2-deoxy-2-naphthamido-β-D-glucopyranoside)] | 110 |
| CCCCCCCCCOc1cc(CCCO[C@@H]2O[C@H](CO)[C@@H](O[C@@H]3O[C@H](CO)[C@H](O)[C@H](O[C@]4(C(=O)O)C[C@H](O)[C@@H](NC(C)=O)[C@H]([C@H](O)[C@H](O)CO)O4)[C@H]3O)[C@H](O[C@@H]3O[C@@H](C)[C@@H](O)[C@@H](O)[C@@H]3O)[C@H]2NC(=O)c2ccc3ccccc3c2)cc(OC)c1OC [Compound 39, 3-(4,5-Dimethoxy-3-nonyloxyphenyl)propyl (5-acetamido-3,5-dideoxy-α-D-glycero-D-galacto-2-nonulopyra nosylonic acid)-(2→3)-O-(β-D-galactopyranosyl)-(1→4) -O-[α-L-fucopyranosyl-(1→3)-O]-(2-deoxy-2-naphthamido-β-D-g lucopyranoside)] | 150 |
| CC(=O)N[C@H]1[C@H]([C@H](O)[C@H](O)CO)O[C@@](O[C@H]2[C@@H](O)[C@@H](CO)O[C@@H](O[C@H]3[C@H](O[C@@H]4O[C@@H](C)[C@@H](O)[C@@H](O)[C@@H]4O)[C@@H](NC(=O)c4ccc5ccccc5c4)[C@H](OCCCc4ccccc4)O[C@@H]3CO)[C@@H]2O)(C(=O)O)C[C@@H]1O [Compound 36, 3-Phenylpropyl (5-acetamido-3,5-dideoxy-α-D-glycero-D-galacto-2-nonulopyranosylonic acid)-(2→3)-O-(β-D-galactopyranosyl)-(1→4)-O-[α-L-fucopyranosyl-(1→3)-O]-(2-deoxy-2-naphthamido-β-D-glucopyranoside)] | 110 |
| COc1cc(CCCO[C@@H]2O[C@H](CO)[C@@H](O[C@@H]3O[C@H](CO)[C@H](O)[C@H](O[C@]4(C(=O)O)C[C@H](O)[C@@H](NC(C)=O)[C@H]([C@H](O)[C@H](O)CO)O4)[C@H]3O)[C@H](O[C@@H]3O[C@@H](C)[C@@H](O)[C@@H](O)[C@@H]3O)[C@H]2NC(=O)c2ccc3ccccc3c2)cc(OC)c1OC [Compound 38, 3-(3,4,5-Trimethoxyphenyl)propyl (5-acetamido-3,5-dideoxy-α-D-glycero-D-galacto-2-nonulopyranosylonic acid)-(2→3)-O-(β-D-galactopyranosyl)-(1→4)-O-[α-L-fucopyranosyl-(1→3)-O]-(2-deoxy-2-naphthamido-β-D-glucopyra noside)] | 150 |
| CC(=O)N[C@H]1[C@H]([C@H](O)[C@H](O)CO)O[C@@](O[C@H]2[C@@H](O)[C@@H](CO)O[C@@H](O[C@H]3[C@H](O[C@@H]4O[C@@H](C)[C@@H](O)[C@@H](O)[C@@H]4O)[C@@H](NC(=O)c4ccc5ccccc5c4)[C@H](OCCOCCOCCO)O[C@@H]3CO)[C@@H]2O)(C(=O)O)C[C@@H]1O [Compound 34, 2-[2-(2-Hydroxyethoxy)ethoxy]ethyl (5-acetamido-3,5-dideoxy-α-D-glycero-D-galacto-2-nonulopyra nosylonic acid)-(2→3)-O-(β-D-galactopyranosyl)-(1→4)-O-[α-L-fucopyranosyl-(1→3)-O]-(2-deoxy-2-paphthamido-β-D-glucopyranoside)] | 110 |
| CC(=O)N[C@H]1[C@H]([C@H](O)[C@H](O)CO)O[C@@](O[C@H]2[C@@H](O)[C@@H](CO)O[C@@H](O[C@H]3[C@H](O[C@@H]4O[C@@H](C)[C@@H](O)[C@@H](O)[C@@H]4O)[C@@H](NC(=O)c4ccc5ccccc5c4)[C@H](OCCOCc4ccccc4)O[C@@H]3CO)[C@@H]2O)(C(=O)O)C[C@@H]1O [Compound 33, 2-Benzyloxyethyl (5-acetamido-3,5-dideoxy-α-D-glycero-D-galacto-2-nonulopyranosylonic acid)-(2→3)-O-(β-D-galactopyranosyl)-(1→4)-O-[α-L-fucopyranosyl-(1→3)-O ]-(2-deoxy-2-naphthamido-β-D-glucopyranoside)] | 210 |

Source: patent EP0801071A1, “LEWIS X DERIVATIVE AND PROCESS FOR PRODUCING THE SAME” (SUMITOMO PHARMACEUTICALS COMPANY, LIMITED, priority 1994, dated 1996)
